Data reported in patent US20250281464A1, “TREATMENT OF PATHOGENIC NEISSERIA SP. INFECTION WITH TRIAZOLE ANTIFUNGAL AGENTS” (Virginia Tech Intellectual Properties, Inc., priority 2022, published 2025).
≈ marks a conversion by molar mass, not a printed value. Where two headings read alike, the source gives them in different places.

Assays:
N. gonorrhoeae = assay: Post-antibiotic effect (PAE) against N. gonorrhoeae; format: cell-based, Neisseria gonorrhoeae; settings: 1 h exposure at 10×MIC
Excerpt: Determining the PAE of a new antimicrobial is an important step for dosing and has clinical importance.

N. gonorrhoeae isolates = assay: MIC against panel of N. gonorrhoeae clinical isolates; format: cell-based, Neisseria gonorrhoeae
N. mucosa = assay: MIC against Neisseria spp.; format: cell-based; settings: N. mucosa (1 strain)
Excerpt: (§1) Intrigued by the specificity and potent activity of azoles against N. gonorrhoeae, we evaluated the extent of the azoles' antibacterial activity against other Neisseria species (Table 8).

N. lactamica = assay: MIC against Neisseria spp.; format: cell-based; settings: N. lactamica (1 strain)
Excerpt: as §1

N. flavescens = assay: MIC against Neisseria spp.; format: cell-based; settings: N. flavescens (1 strain)
Excerpt: as §1

L. gasseri = assay: MIC against commensal vaginal Lactobacillus strains; format: cell-based, Lactobacillus gasseri; settings: for MIC: Lactobacillus gasseri; for MIC Range: Table 6, L. gasseri (4 strains)
Excerpt: (§2) N. gonorrhoeae pathogenesis greatly depends on colonization of the reproductive tract. One of the natural barriers of such colonization is an intact healthy microbiome. Species of lactobacilli present in the genitourinary tract play a significant role in hindering colonization by Neisseria(1).
(§3) A healthy vaginal microbiome that is dominated by Lactobacillus spp. is less susceptible to N. gonorrhoeae infection and other sexually transmitted diseases (STDs). […] We tested the activity of azoles against important members of healthy vaginal microbiota that inhibit N. gonorrhoeae colonization.

L. jensenii = assay: as above; format: cell-based, Lactobacillus jensenii; settings: for MIC: Lactobacillus jensenii; for MIC Range: Table 6, L. jensenii (7 strains)
Excerpt: as §2, §3

Lactobacillus brevis = assay: MIC against normal gut microbiota; format: cell-based; settings: Lactobacillus brevis (1 strain)
Excerpt: (§4) Disrupting the intestinal microbiota using broad-spectrum antimicrobial therapy increases the susceptibility of hosts to C. difficile colonization.

Enterococcus faecium = assay: MIC against normal gut microbiota; format: cell-based; settings: Enterococcus faecium (1 strain)
Excerpt: as §4

Bacteroides fragilis = assay: MIC against normal gut microbiota; format: cell-based; settings: Bacteroides fragilis (4 strains)
Excerpt: as §4

Lactobacillus rhamnosus = assay: MIC against normal gut microbiota; format: cell-based; settings: Lactobacillus rhamnosus (1 strain)
Excerpt: as §4

Lactobacillus casei = assay: MIC against normal gut microbiota; format: cell-based; settings: Lactobacillus casei (1 strain)
Excerpt: as §4

[1] = test system: Bifidobacterium angulatum; assay: MIC against normal gut microbiota; format: cell-based; settings: Bifidobacterium angulatum (1 strain)
Excerpt: as §4

Bacteroides dorei = assay: MIC against normal gut microbiota; format: cell-based; settings: Bacteroides dorei (2 strains)
Excerpt: as §4

Enterococcus faecalis = assay: MIC against normal gut microbiota; format: cell-based; settings: Enterococcus faecalis (1 strain)
Excerpt: as §4

[2] = MIC against normal gut microbiota; format: cell-based
Excerpt: as §4

Escherichia coli = assay: MIC against normal gut microbiota; format: cell-based; settings: Escherichia coli (1 strain)
Excerpt: as §4

Staphylococcus aureus = assay: MIC against normal gut microbiota; format: cell-based; settings: Staphylococcus aureus (1 strain)
Excerpt: as §4

L. johnsonii = assay: MIC against commensal vaginal Lactobacillus strains; format: cell-based, Lactobacillus johnsonii; settings: for MIC Range: Table 6, L. johsonii (2 strains)
Excerpt: as §2, §3

N. meingitidis = assay: MIC against Neisseria spp.; format: cell-based, Neisseria meningitidis; settings: N. meingitidis (5 strains)
L. crispatus = assay: MIC against commensal vaginal Lactobacillus strains; format: cell-based, Lactobacillus crispatus; settings: for MIC: Lactobacillus crispatus; for MIC Range: Table 6, L. crispatus (3 strains)
Excerpt: as §2, §3

[3] = test system: commensal vaginal lactobacilli strains; assay: MIC against all commensal vaginal Lactobacillus strains tested; format: cell-based, Lactobacillus spp.; settings: Lactobacillus
Excerpt: as §2, §3

[4] = Table 1, 104 N. gonorrhoeae isolates
[5] = Table 3, 103 N. gonorrhoeae isolates with different resistance profiles
[6] = Bacteroides adolescentis (2 strains)

CCC(C)n1ncn(-c2ccc(N3CCN(c4ccc(OCC5COC(Cn6cncn6)(c6ccc(Cl)cc6Cl)O5)cc4)CC3)cc2)c1=O (stereo not drawn) [Itraconazole]
PAE (N. gonorrhoeae; strain FA 1090): 4 h | PAE (N. gonorrhoeae; strain WHO P): 4 h | PAE (N. gonorrhoeae; strain WHO Y): 4 h | MIC50 (N. gonorrhoeae isolates; Neisseria gonorrhoeae, Table 1, 104 N. gonorrhoeae isolates, read-out: MIC50): 1 mg/L (≈ 1.42 µM) | MIC90 (N. gonorrhoeae isolates; Neisseria gonorrhoeae, Table 1, 104 N. gonorrhoeae isolates, read-out: MIC90): 2 mg/L (≈ 2.83 µM) | MIC50 (N. gonorrhoeae isolates; Neisseria gonorrhoeae, Table 3, 103 N. gonorrhoeae isolates with different resistance profiles, read-out: MIC50): 1 mg/L (≈ 1.42 µM) | MIC90 (N. gonorrhoeae isolates; Neisseria gonorrhoeae, Table 3, 103 N. gonorrhoeae isolates with different resistance profiles, read-out: MIC90): 2 mg/L (≈ 2.83 µM) | MIC Range (N. gonorrhoeae isolates; [4]): 0.03 to 4 mg/L | MIC Range (N. gonorrhoeae isolates; [5]): 0.03 to 8 mg/L | MIC Range (N. mucosa): 64 mg/L (≈ 90.7 µM) | MIC Range (N. lactamica): 4 mg/L (≈ 5.67 µM) | MIC Range (N. flavescens): 64 mg/L (≈ 90.7 µM) | MIC (L. gasseri; L. gasseri HM-407): > 256 mg/L | MIC (L. gasseri; L. gasseri HM-642): > 256 mg/L | MIC (L. gasseri; L. gasseri HM-644): > 256 mg/L | MIC (L. gasseri; L. gasseri HM-647): > 256 mg/L | MIC Range (L. gasseri): ≥256 mg/L | MIC (L. jensenii; L. jensenii HM-105): > 256 mg/L | MIC (L. jensenii; L. jensenii HM-372): > 256 mg/L | MIC (L. jensenii; L. jensenii HM-374): > 256 mg/L | MIC (L. jensenii; L. jensenii HM-639): > 256 mg/L | MIC (L. jensenii; L. jensenii HM-640): > 256 mg/L | MIC (L. jensenii; L. jensenii HM-645): > 256 mg/L | MIC (L. jensenii; L. jensenii HM-646): > 256 mg/L | MIC Range (L. jensenii): ≥256 mg/L | MIC Range (Lactobacillus brevis): >256 mg/L | MIC Range (Enterococcus faecium): >256 mg/L | MIC Range (Bacteroides fragilis): >256 mg/L | MIC Range (Lactobacillus rhamnosus): >256 mg/L | MIC Range (Lactobacillus casei): >256 mg/L | MIC Range [1]: >256 mg/L | MIC Range (Bacteroides dorei): >256 mg/L | MIC Range (Enterococcus faecalis): >256 mg/L | MIC Range [2, 6]: >256 mg/L | MIC Range ([2]; Bacteroides breve (2 strains)): >256 mg/L | MIC Range ([2]; Bacteroides longum (2 strains)): >256 mg/L | MIC Range (Escherichia coli): >256 mg/L | MIC Range (Staphylococcus aureus): >256 mg/L | MIC (L. johnsonii; Lactobacillus johnsonii, L. johnsonii HM-643): > 256 mg/L | MIC Range (L. johnsonii): ≥256 mg/L | MIC Range (N. meingitidis): 0.125 to 1 mg/L | MIC (L. crispatus; L. crispatus HM-103): > 256 mg/L | MIC (L. crispatus; L. crispatus HM-371): > 256 mg/L | MIC (L. crispatus; L. crispatus HM-638): > 256 mg/L | MIC Range (L. crispatus): ≥256 mg/L

C[C@@H]1CN2c3c(cc4c(N5C(=O)OC[C@@H]5C)noc4c3F)CC3(C(=O)NC(=O)NC3=O)[C@H]2[C@H](C)O1 [Zoliflodacin]
MIC50 (N. gonorrhoeae isolates; Neisseria gonorrhoeae): 0.06 mg/L (≈ 0.123 µM) | MIC90 (N. gonorrhoeae isolates; Neisseria gonorrhoeae): 0.125 mg/L (≈ 0.256 µM) | MIC Range (N. gonorrhoeae isolates; [4]): 0.004 to 0.5 mg/L | MIC50 (N. gonorrhoeae isolates; [5]): 0.06 mg/L (≈ 0.123 µM) | MIC90 (N. gonorrhoeae isolates; [5]): 0.125 mg/L (≈ 0.256 µM) | MIC Range (N. gonorrhoeae isolates; [5]): 0.004 to 0.25 mg/L | MIC Range (L. gasseri): ≤1 mg/L | MIC Range (L. jensenii): ≤1 mg/L | MIC Range (Lactobacillus brevis): 1 mg/L (≈ 2.05 µM) | MIC Range (Enterococcus faecium): 2 mg/L (≈ 4.1 µM) | MIC Range (Bacteroides fragilis): 2 to 8 mg/L | MIC Range (Lactobacillus rhamnosus): 0.125 mg/L (≈ 0.256 µM) | MIC Range (Lactobacillus casei): <0.125 mg/L | MIC Range [1]: 1 mg/L (≈ 2.05 µM) | MIC Range (Bacteroides dorei): 0.5 to 1 mg/L | MIC Range (Enterococcus faecalis): 0.5 mg/L (≈ 1.03 µM) | MIC Range [2, 6]: 1 mg/L (≈ 2.05 µM) | MIC Range ([2]; Bacteroides breve (2 strains)): 4 mg/L (≈ 8.21 µM) | MIC Range ([2]; Bacteroides longum (2 strains)): 1 to 2 mg/L | MIC Range (Escherichia coli): 0.25 mg/L (≈ 0.513 µM) | MIC Range (Staphylococcus aureus): 0.125 mg/L (≈ 0.256 µM) | MIC [3]: < 1 mg/L | MIC Range (L. johnsonii): ≤1 mg/L | MIC Range (L. crispatus): ≤1 mg/L
